Results as given in PMC7211202 (Investigational New Drugs, 2019).
Where two headings read alike, the source gives them in different places.

Legend:
[1] = Dose-limiting toxicities and maximum tolerated dose; assay type: in vivo
Procedure: This open-label phase 1 study was conducted at 16 centers (ClinicalTrials.gov, NCT01723020). TP53 mutation status was confirmed by central laboratory assessment. The study was planned with two parts: a 3-part dose escalation (Part 1) and a dose expansion (Part 2). […] Intermediate doses were allowed when deemed appropriate. The dose expansion was planned for patients with MDM2-amplified tumors (group 1; liposarcomas, GBM, and other solid tumors), potentially MDM2-overexpressing tumors (group 2; ER+ metastatic breast cancer), or multiple myeloma (group 3).
Each patient was monitored for 21 days for the occurrence of dose-limiting toxicities (DLTs), defined as febrile neutropenia, neutropenic infection, grade 4 neutropenia lasting >7 days, grade ≥ 3 thrombocytopenia lasting >7 days (solid tumors only), grade 3 thrombocytopenia with grade ≥ 2 bleeding (solid tumors only), grade 3 or 4 thrombocytopenia with grade > 1 bleeding (multiple myeloma only), grade 4 thrombocytopenia (solid tumors only), or grade 4 thrombocytopenia lasting >14 days (multiple myeloma only), or as grade ≥ 3 nausea, vomiting, or diarrhea after support; grade 3 fatigue lasting >7 days; any other grade ≥ 3 adverse event (AE); grade ≥ 3 kidney injury (multiple myeloma only), or treatment-related AEs not returning to grade ≤ 1 (solid tumors only) per Common Terminology Criteria for Adverse Events (CTCAE), version 4.0. […] Treatment continued until disease progression, intolerable toxicity, or withdrawal of consent.

[2] = Plasma AMG 232 pharmacokinetics (HPLC-MS, non-compartmental analysis); assay type: in vivo, human; settings: for AUC(0-t) / Cmax / Tmax / Vd/F: human, plasma, oral; for AUC(0-t): read-out: AUC24h, mean (SD); for Cmax: read-out: Cmax, mean (SD); for Tmax: read-out: tmax, median (range); for Vd/F: read-out: Vz/F, mean (SD)
Procedure: Non-compartmental analysis was performed using WinNonlin Professional software, version 6.3. Parameters were summarized descriptively.

MDM2-p53 interaction = settings: cited from earlier work
MDM2-amplified tumors = settings: cited from earlier work
[3] = 15 mg, Day 1, dose escalation, 15 mg (n = 3)
[4] = 15 mg, Day 7, dose escalation, 15 mg (n = 3)
[5] = 30 mg, Day 1, dose escalation, 30 mg (n = 3)
[6] = 30 mg, Day 7, dose escalation, 30 mg (n = 3)
[7] = 60 mg, Day 1, dose escalation, 60 mg (n = 2–4)
[8] = 60 mg, Day 7, dose escalation, 60 mg (n = 2–4)
[9] = 120 mg, Day 1, dose escalation, 120 mg (n = 4–7)
[10] = 120 mg, Day 7, dose escalation, 120 mg (n = 4–7)
[11] = 240 mg, Day 1, 240-mg dose expansion, DDLPS (n = 6–10)
[12] = 240 mg, Day 1, 240-mg dose expansion, ER + PR+ Breast (n = 6–8)
[13] = 240 mg, Day 1, 240-mg dose expansion, ER + PR– Breast (n = 4)
[14] = 240 mg, Day 1, 240-mg dose expansion, GBM (n = 6–9)
[15] = 240 mg, Day 1, 240-mg dose expansion, Multiple Myeloma (n = 7–10)
[16] = 240 mg, Day 1, 240-mg dose expansion, Other Solid (n = 9–16)
[17] = 240 mg, Day 1, 240-mg dose expansion, Total (n = 47–67)
[18] = 240 mg, Day 1, 240-mg dose expansion, WDLPS (n = 9–10)
[19] = 240 mg, Day 1, Parts 1 and 2, 240 mg (n = 54–75)
[20] = 240 mg, Day 1, dose escalation, 240 mg (n = 7–8)
[21] = 240 mg, Day 7, 240-mg dose expansion, DDLPS (n = 6–10)
[22] = 240 mg, Day 7, 240-mg dose expansion, ER + PR+ Breast (n = 6–8)
[23] = 240 mg, Day 7, 240-mg dose expansion, ER + PR– Breast (n = 4)
[24] = 240 mg, Day 7, 240-mg dose expansion, GBM (n = 6–9)
[25] = 240 mg, Day 7, 240-mg dose expansion, Multiple Myeloma (n = 7–10)
[26] = 240 mg, Day 7, 240-mg dose expansion, Other Solid (n = 9–16)
[27] = 240 mg, Day 7, 240-mg dose expansion, Total (n = 47–67)
[28] = 240 mg, Day 7, 240-mg dose expansion, WDLPS (n = 9–10)
[29] = 240 mg, Day 7, Parts 1 and 2, 240 mg (n = 54–75)
[30] = 240 mg, Day 7, dose escalation, 240 mg (n = 7–8)
[31] = 300 mg, Day 1, dose escalation, 300 mg (n = 3–4)
[32] = 300 mg, Day 7, dose escalation, 300 mg (n = 3–4)
[33] = 360 mg, Day 1, dose escalation, 360 mg (n = 3–4)
[34] = 360 mg, Day 7, dose escalation, 360 mg (n = 3–4)
[35] = 480 mg, Day 1, dose escalation, 480 mg (n = 5–6)
[36] = 480 mg, Day 7, dose escalation, 480 mg (n = 5–6)

CC(C)[C@@H](CS(=O)(=O)C(C)C)N1C(=O)[C@@](C)(CC(=O)O)C[C@H](c2cccc(Cl)c2)[C@H]1c1ccc(Cl)cc1 [AMG 232]
DLT observed ([1]; 120-mg cohort, patient with esophageal cancer): grade 3 thrombocytopenia on day 15 that worsened to grade 4 on day 17
Additional patients with cytopenias (grade 4 neutropenia; grade 4 thrombocytopenia) outside of the 21-day DLT evaluation window ([1]; 300-mg cohort): Two
DLT observed ([1]; 360-mg cohort, patient with rectal cancer): grade 4 thrombocytopenia on day 28
DLT observed ([1]; 480-mg cohort, patient with head and neck cancer): grade 3 neutropenia on day 22 that delayed treatment in the next cycle
highest safe and tolerable dose ([1]; DLTs and delayed cytopenias considered, QD 7 days Q3W): 240 mg
MTD (protocol-specified definition using DLTs incidence) ([1]; QD for 7 days Q3W, doses up to 480 mg): not reached
Patients with DLTs ([1]; dose escalation): Three
Dose proportionality of plasma concentrations ([2]; 15–480 mg QD for 7 days Q3W): increased generally dose proportionally
AUC(0-t) [2, 3]: 0.884 µg·h/mL
Cmax [2, 3]: 0.169 µg/mL
Tmax [2, 3]: 3.1 h
AUC(0-t) [2, 4]: 0.949 µg·h/mL
Cmax [2, 4]: 0.13 µg/mL
Vd/F [2, 4]: 497 L
Tmax [2, 4]: 3.1 h
AUC(0-t) [2, 5]: 1.96 µg·h/mL
Cmax [2, 5]: 0.255 µg/mL
Tmax [2, 5]: 3 h
AUC(0-t) [2, 6]: 2.83 µg·h/mL
Cmax [2, 6]: 0.259 µg/mL
Tmax [2, 6]: 3 h
AUC(0-t) [2, 7]: 2.95 µg·h/mL
Cmax [2, 7]: 0.527 µg/mL
Tmax [2, 7]: 3 h
AUC(0-t) [2, 8]: 4 µg·h/mL
Cmax [2, 8]: 0.457 µg/mL
Vd/F [2, 8]: 360 L
Tmax [2, 8]: 4 h
AUC(0-t) [2, 9]: 5.16 µg·h/mL
Cmax [2, 9]: 0.599 µg/mL
Tmax [2, 9]: 3 h
AUC(0-t) [2, 10]: 8.94 µg·h/mL
Cmax [2, 10]: 0.868 µg/mL
Vd/F [2, 10]: 664 L
Tmax [2, 10]: 3 h
AUC(0-t) [2, 11]: 8.01 µg·h/mL
Cmax [2, 11]: 0.986 µg/mL
Tmax [2, 11]: 2 h
AUC(0-t) [2, 12]: 9.66 µg·h/mL
Cmax [2, 12]: 1.92 µg/mL
Tmax [2, 12]: 2.8 h
AUC(0-t) [2, 13]: 9.43 µg·h/mL
Cmax [2, 13]: 1.36 µg/mL
Tmax [2, 13]: 2.1 h
AUC(0-t) [2, 14]: 5.36 µg·h/mL
Cmax [2, 14]: 0.978 µg/mL
Tmax [2, 14]: 3 h
Cmax [2, 15]: 1.32 µg/mL
Tmax [2, 15]: 2 h
AUC(0-t) [2, 16]: 10.8 µg·h/mL
Cmax [2, 16]: 1.67 µg/mL
Tmax [2, 16]: 3 h
AUC(0-t) [2, 17]: 8.83 µg·h/mL
Cmax [2, 17]: 1.39 µg/mL
Tmax [2, 17]: 3 h
AUC(0-t) [2, 18]: 9.26 µg·h/mL
Cmax [2, 18]: 1.35 µg/mL
Tmax [2, 18]: 3.1 h
AUC(0-t) [2, 19]: 8.48 µg·h/mL
Cmax [2, 19]: 1.35 µg/mL
Tmax [2, 19]: 3 h
AUC(0-t) [2, 20]: 5.69 µg·h/mL
Cmax [2, 20]: 1.03 µg/mL
Tmax [2, 20]: 2 h
AUC(0-t) [2, 21]: 10.8 µg·h/mL
Cmax [2, 21]: 1.05 µg/mL
Vd/F [2, 21]: 537 L
Tmax [2, 21]: 3 h
Cmax [2, 22]: 1.35 µg/mL
Vd/F [2, 22]: 689 L
Tmax [2, 22]: 2.8 h
AUC(0-t) [2, 23]: 9.96 µg·h/mL
Cmax [2, 23]: 1.62 µg/mL
Vd/F [2, 23]: 814 L
Tmax [2, 23]: 1 h
AUC(0-t) [2, 24]: 9.21 µg·h/mL
Cmax [2, 24]: 0.988 µg/mL
Vd/F [2, 24]: 1010 L
Tmax [2, 24]: 2.8 h
AUC(0-t) [2, 25]: 8.45 µg·h/mL
Cmax [2, 25]: 1.19 µg/mL
Vd/F [2, 25]: 859 L
Tmax [2, 25]: 1.1 h
AUC(0-t) [2, 26]: 17.2 µg·h/mL
Cmax [2, 26]: 2.2 µg/mL
Vd/F [2, 26]: 353 L
Tmax [2, 26]: 2.9 h
AUC(0-t) [2, 27]: 12.3 µg·h/mL
Cmax [2, 27]: 1.42 µg/mL
Vd/F [2, 27]: 627 L
Tmax [2, 27]: 2.8 h
AUC(0-t) [2, 28]: 15.7 µg·h/mL
Cmax [2, 28]: 1.23 µg/mL
Vd/F [2, 28]: 389 L
Tmax [2, 28]: 3 h
AUC(0-t) [2, 29]: 12.1 µg·h/mL
Cmax [2, 29]: 1.44 µg/mL
Vd/F [2, 29]: 613 L
Tmax [2, 29]: 2.9 h
AUC(0-t) [2, 30]: 10.6 µg·h/mL
Cmax [2, 30]: 1.56 µg/mL
Vd/F [2, 30]: 523 L
Tmax [2, 30]: 3 h
AUC(0-t) [2, 31]: 14.7 µg·h/mL
Cmax [2, 31]: 1.74 µg/mL
Tmax [2, 31]: 3 h
AUC(0-t) [2, 32]: 25 µg·h/mL
Cmax [2, 32]: 2.09 µg/mL
Vd/F [2, 32]: 762 L
Tmax [2, 32]: 3.1 h
AUC(0-t) [2, 33]: 15.8 µg·h/mL
Cmax [2, 33]: 2.38 µg/mL
Tmax [2, 33]: 2 h
AUC(0-t) [2, 34]: 15.5 µg·h/mL
Cmax [2, 34]: 2.05 µg/mL
Vd/F [2, 34]: 423 L
Tmax [2, 34]: 2 h
AUC(0-t) [2, 35]: 18.8 µg·h/mL
Cmax [2, 35]: 2.63 µg/mL
Tmax [2, 35]: 3 h
AUC(0-t) [2, 36]: 18.4 µg·h/mL
Cmax [2, 36]: 1.75 µg/mL
Vd/F [2, 36]: 585 L
Tmax [2, 36]: 3.1 h
Vd/F ([2]; Day 7, Parts 1 and 2, All Doses (n = 76–97)): 615 L
affinity of blocking the MDM2-p53 interaction (MDM2-p53 interaction): picomolar
effect of treatment in tumor xenograft models (MDM2-amplified tumors): tumor growth inhibition
effect on MDM2-amplified tumors in xenograft models (MDM2-amplified tumors; through induction of growth arrest and apoptosis): regression
